This experiment addresses T1, GPBAR1 (TGR5) (Homo sapiens, UniProt Q8TDU6).
T1 sequence (Q8TDU6 1-330): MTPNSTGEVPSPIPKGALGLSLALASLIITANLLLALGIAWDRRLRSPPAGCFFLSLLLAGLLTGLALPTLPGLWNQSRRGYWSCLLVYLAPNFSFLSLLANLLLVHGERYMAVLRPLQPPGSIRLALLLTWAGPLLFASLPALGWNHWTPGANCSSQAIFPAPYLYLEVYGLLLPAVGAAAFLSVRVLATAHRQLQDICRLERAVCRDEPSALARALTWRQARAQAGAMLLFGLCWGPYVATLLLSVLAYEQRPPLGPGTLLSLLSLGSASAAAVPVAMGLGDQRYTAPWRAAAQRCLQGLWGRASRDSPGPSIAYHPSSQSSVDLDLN
The experiment in a line: AlphaScreen cAMP assay in CHO cells expressing human GPBAR1; no response in parental CHO cells.

Take BIX02694: the EC50 stood at 9 nM.

The record behind these values is publication PMC4072711, “A GPBAR1 (TGR5) Small Molecule Agonist Shows Specific Inhibitory Effects on Myeloid Cell Activation In Vitro and Reduces Experimental Autoimmune Encephalitis (EAE) In Vivo” (PLoS ONE, 2014).
